Data taken from ChEMBL document CHEMBL1201861, “Genomics of Drug Sensitity in Cancer screening data, Wellcome Trust Sanger Institute”.

Columns and labels:
[1] = system: NCI-H2452; assay: cells; format: functional, cell-based, Homo sapiens; settings: Homo sapiens, NCI-H2452;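 further: growth inhibition of NCI-H2452 cells, read out with a cell viability assay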
Description: SANGER: Inhibition of human NCI-H2452 cell growth in a cell viability assay.

[2] = system: H9; assay: cells; format: functional, cell-based, Homo sapiens; settings: Homo sapiens, H9
Description: SANGER: Inhibition of human H9 cell growth in a cell viability assay.

[3] = system: IGROV-1; assay: cells; format: functional, cell-based, Homo sapiens; settings: Homo sapiens, IGROV-1;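 further: reduction of IGROV-1 cell growth, read out with a viability assay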
Description: SANGER: Inhibition of human IGROV-1 cell growth in a cell viability assay.

[4] = system: MKN-28; assay: cells; format: functional, cell-based, Homo sapiens; settings: Homo sapiens, MKN-28;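 further: cell viability assay read-out, IC50 reflects suppression of growth of human MKN-28 cells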
Description: SANGER: Inhibition of human MKN28 cell growth in a cell viability assay.

[5] = system: TI-73; assay: cells; format: functional, cell-based, Homo sapiens; settings: Homo sapiens, TI-73;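 further: cell viability assay measuring how much compounds suppress growth of the cultured cell line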
Description: SANGER: Inhibition of human TI-73 cell growth in a cell viability assay.

[6] = system: UO-31; assay: cells; format: functional, cell-based, Homo sapiens; settings: Homo sapiens, UO-31
Description: SANGER: Inhibition of human U031 cell growth in a cell viability assay.

[7] = system: BHT-101; assay: cells; format: functional, cell-based, Homo sapiens; settings: Homo sapiens, BHT-101
Description: SANGER: Inhibition of human BHT-101 cell growth in a cell viability assay.

[8] = system: NBsusSR; assay: cells; format: functional, cell-based, Homo sapiens; settings: Homo sapiens, NBsusSR;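 further: growth inhibition of the human cell line, read out with a cell viability assay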
Description: SANGER: Inhibition of human NBsusSR cell growth in a cell viability assay.

[9] = system: A-375; assay: cells; format: functional, cell-based, Homo sapiens; settings: Homo sapiens, A-375;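 further: growth inhibition of A375 cells, read out with a cell viability assay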
Description: SANGER: Inhibition of human A375 cell growth in a cell viability assay.

[10] = system: MCF7; assay: cells; format: functional, cell-based, Homo sapiens; settings: Homo sapiens, MCF7;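 further: growth inhibition of human MCF7 cells, read out with a cell viability assay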
Description: SANGER: Inhibition of human MCF7 cell growth in a cell viability assay.

[11] = system: HCC38; assay: cells; format: functional, cell-based, Homo sapiens; settings: Homo sapiens, HCC38;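 further: cell viability assay on the human HCC38 cell line, with IC50 marking the concentration that inhibits cell growth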
Description: SANGER: Inhibition of human HCC38 cell growth in a cell viability assay.

[12] = system: CFPAC-1; assay: cells; format: functional, cell-based, Homo sapiens; settings: Homo sapiens, CFPAC-1;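 further: cell viability readout used to gauge suppression of CFPAC-1 cell proliferation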
Description: SANGER: Inhibition of human CFPAC-1 cell growth in a cell viability assay.

[13] = system: CHP-212; assay: cells; format: functional, cell-based, Homo sapiens; settings: Homo sapiens, CHP-212
Description: SANGER: Inhibition of human CHP-212 cell growth in a cell viability assay.

[14] = system: C32; assay: cells; format: functional, cell-based, Homo sapiens; settings: Homo sapiens, C32;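 further: cell viability assay, with IC50 reflecting inhibition of C32 cell growth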
Description: SANGER: Inhibition of human C32 cell growth in a cell viability assay.

[15] = system: NCI-H1048; assay: cells; format: functional, cell-based, Homo sapiens; settings: Homo sapiens, NCI-H1048;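 further: growth inhibition of human NCI-H1048 cells, read out with a cell viability assay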
Description: SANGER: Inhibition of human NCI-H1048 cell growth in a cell viability assay.

[16] = system: LoVo; assay: cells; format: functional, cell-based, Homo sapiens; settings: Homo sapiens, LoVo;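 further: growth inhibition of human LoVo cells, read out with a cell viability assay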
Description: SANGER: Inhibition of human LoVo cell growth in a cell viability assay.

[17] = system: G-402; assay: cells; format: functional, cell-based, Homo sapiens; settings: Homo sapiens, G-402
Description: SANGER: Inhibition of human G-402 cell growth in a cell viability assay.

[18] = system: T47D; assay: cells; format: functional, cell-based, Homo sapiens; settings: Homo sapiens, T47D;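 further: growth inhibition of human T47D cells, measured with a cell viability assay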
Description: SANGER: Inhibition of human T47D cell growth in a cell viability assay.

[19] = system: ECC10; assay: cells; format: functional, cell-based, Homo sapiens; settings: Homo sapiens, ECC10;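 further: growth inhibition of ECC10 cells, read out by a cell viability assay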
Description: SANGER: Inhibition of human ECC10 cell growth in a cell viability assay.

[20] = system: D-423MG; assay: cells; format: functional, cell-based, Homo sapiens; settings: Homo sapiens, D-423MG
Description: SANGER: Inhibition of human D-423MG cell growth in a cell viability assay.

[21] = system: HMV-2 cell line; assay: cells; format: functional, cell-based, Homo sapiens; settings: Homo sapiens, HMV-2;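 further: growth inhibition of HMV-II cells, read out with a cell viability assay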
Description: SANGER: Inhibition of human HMV-II cell growth in a cell viability assay.

[22] = system: PFSK-1; assay: cells; format: functional, cell-based, Homo sapiens; settings: Homo sapiens, PFSK-1;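 further: cell viability assay measuring how strongly compounds suppress growth of human PFSK-1 cells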
Description: SANGER: Inhibition of human PFSK-1 cell growth in a cell viability assay.

[23] = system: DMS-53; assay: cells; format: functional, cell-based, Homo sapiens; settings: Homo sapiens, DMS-53;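 further: cell viability assay measuring growth inhibition of human DMS-53 cells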
Description: SANGER: Inhibition of human DMS-53 cell growth in a cell viability assay.

[24] = system: MEL-JUSO; assay: cells; format: functional, cell-based, Homo sapiens; settings: Homo sapiens, MEL-JUSO;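 further: growth inhibition of human MEL-JUSO cells, read out with a cell viability assay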
Description: SANGER: Inhibition of human MEL-JUSO cell growth in a cell viability assay.

[25] = system: NCI-H2009; assay: cells; format: functional, cell-based, Homo sapiens; settings: Homo sapiens, NCI-H2009;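 further: cell viability assay measuring inhibition of NCI-H2009 cell growth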
Description: SANGER: Inhibition of human NCI-H2009 cell growth in a cell viability assay.

[26] = system: EW-7; assay: SANGER: Inhibition of human EW-7 cell growth in a cell viability assay.; format: functional, cell-based; settings: Homo sapiens, EW-7
[27] = system: CPC-N; assay: cells; format: functional, cell-based, Homo sapiens; settings: Homo sapiens, CPC-N;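 further: growth inhibition of CPC-N cells, with a cell viability assay as the readout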
Description: SANGER: Inhibition of human CPC-N cell growth in a cell viability assay.

[28] = system: CAL-148; assay: cells; format: functional, cell-based, Homo sapiens; settings: Homo sapiens, CAL-148
Description: SANGER: Inhibition of human CAL-148 cell growth in a cell viability assay.

[29] = system: ARH-77; assay: cells; format: functional, cell-based, Homo sapiens; settings: Homo sapiens, ARH-77;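 further: growth inhibition of ARH-77 cells, read out by a cell viability assay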
Description: SANGER: Inhibition of human ARH-77 cell growth in a cell viability assay.

[30] = system: IM-9; assay: SANGER: Inhibition of human IM-9 cell growth in a cell viability assay.; format: functional, cell-based; settings: Homo sapiens, IM-9
[31] = system: REH; assay: cells; format: functional, cell-based, Homo sapiens; settings: Homo sapiens, REH;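 further: growth inhibition of REH cells determined with a cell viability read-out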
Description: SANGER: Inhibition of human REH cell growth in a cell viability assay.

[32] = system: EW-12; assay: SANGER: Inhibition of human EW-12 cell growth in a cell viability assay.; format: functional, cell-based
[33] = system: Raji; assay: cells; format: functional, cell-based, Homo sapiens; settings: Homo sapiens, Raji;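 further: cell viability assay measuring inhibition of Raji cell growth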
Description: SANGER: Inhibition of human Raji cell growth in a cell viability assay.

[34] = system: NCI-H1522; assay: cells; format: functional, cell-based, Homo sapiens; settings: Homo sapiens, NCI-H1522;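 further: growth inhibition of NCI-H1522 cells, read out with a cell viability assay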
Description: SANGER: Inhibition of human NCI-H1522 cell growth in a cell viability assay.

[35] = system: NCI-H187; assay: cells; format: functional, cell-based, Homo sapiens; settings: Homo sapiens, NCI-H187;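 further: growth inhibition of NCI-H187 cells, read out as cell viability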
Description: SANGER: Inhibition of human NCI-H187 cell growth in a cell viability assay.

[36] = system: SKM-1; assay: SANGER: Inhibition of human SKM-1 cell growth in a cell viability assay.; format: functional, cell-based
[37] = system: YT; assay: cells; format: functional, cell-based, Homo sapiens; settings: Homo sapiens, YT
Description: SANGER: Inhibition of human YT cell growth in a cell viability assay.

[38] = system: SIG-M5; assay: cells; format: functional, cell-based, Homo sapiens; settings: Homo sapiens, SIG-M5;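 further: cell viability assay read-out, measuring how strongly growth of cultured human SIG-M5 cells is inhibited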
Description: SANGER: Inhibition of human SIG-M5 cell growth in a cell viability assay.

[39] = system: NCI-H128; assay: SANGER: Inhibition of human NCI-H128 cell growth in a cell viability assay.; format: functional, cell-based
[40] = system: JIYOYE; assay: cells; format: functional, cell-based, Homo sapiens; settings: Homo sapiens, JIYOYE
Description: SANGER: Inhibition of human JiyoyeP-2003 cell growth in a cell viability assay.

[41] = system: SUP-T1; assay: cells; format: functional, cell-based, Homo sapiens; settings: Homo sapiens, SUP-T1;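 further: growth inhibition of human SUP-T1 cells, read out as cell viability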
Description: SANGER: Inhibition of human SUP-T1 cell growth in a cell viability assay.

Row | SMILES | IC50 [1] [µM] | IC50 [2] [µM] | IC50 [3] [µM] | IC50 [4] [µM] | IC50 [5] [µM] | IC50 [6] [µM] | IC50 [7] [µM] | IC50 [8] [µM] | IC50 [9] [µM] | IC50 [10] [µM] | IC50 [11] [µM] | IC50 [12] [µM] | IC50 [13] [µM] | IC50 [14] [µM] | IC50 [15] [µM] | IC50 [16] [µM] | IC50 [17] [µM] | IC50 [18] [µM] | IC50 [20] [µM] | IC50 [22] [µM] | other results
1 | COc1cc2c(Nc3ccc(NC(=O)c4ccccc4)cc3)ncnc2cc1OCCCN1CCOCC1 | > 4 | 0.93 | > 4 | > 4 | > 4 | > 4 | > 4 | 0.914 | 3.85 | > 4 | > 4 | > 4 | 1.47 | 3.83 | 1.8 | > 4 | > 4 | > 4 | > 4 | > 4 | IC50 [19]: 1.63 µM; IC50 [21]: > 4 µM
2 | CC(C)c1ccccc1Cc1cc(C(=O)Nc2ccc(S(=O)(=O)c3ccccc3C(C)(C)C)cc2)c(O)c(O)c1O | 0.754 | – | 0.454 | 1.13 | – | 0.184 | 0.0218 | – | 0.0888 | 0.337 | 0.676 | 0.522 | 4.57 | 2.02 | 0.214 | 0.161 | 0.193 | 0.691 | 0.473 | 0.177 | IC50 [23]: 1.32 µM; IC50 [24]: 0.439 µM; IC50 [25]: 0.245 µM; IC50 [21]: 0.309 µM; IC50 [26]: 0.167 µM
3 | COc1cc2ncn(-c3cc(OCc4ccccc4S(C)(=O)=O)c(C#N)s3)c2cc1OC [GSK-319347A] | – | – | – | – | – | – | – | – | – | – | – | – | – | – | – | – | – | – | – | – | IC50 [27]: > 5 µM; IC50 [28]: > 5 µM; IC50 [29]: > 5 µM; IC50 [30]: > 5 µM; IC50 [31]: > 5 µM; IC50 [32]: > 5 µM; IC50 [33]: > 5 µM; IC50 [34]: > 5 µM; IC50 [35]: > 5 µM; IC50 [36]: > 5 µM; IC50 [37]: > 5 µM; IC50 [38]: > 5 µM; IC50 [39]: > 5 µM; IC50 [40]: > 5 µM; IC50 [41]: > 5 µM
4 | CN(C)C(=N)NC(=N)N [METFORMIN] | – | 7140 | > 20000 | > 20000 | 13600 | > 20000 | 6420 | 9190 | – | – | – | > 20000 | 9630 | > 20000 | > 20000 | > 20000 | 11300 | 19900 | 3260 | > 20000 | IC50 [24]: 16000 µM; IC50 [19]: 2280 µM
5 | CC1(C)CNc2cc(NC(=O)c3cccnc3NCc3ccncc3)ccc21 [MOTESANIB] | > 2 | > 2 | > 2 | > 2 | > 2 | > 2 | > 2 | > 2 | > 2 | > 2 | > 2 | > 2 | > 2 | > 2 | > 2 | > 2 | 1.02 | > 2 | > 2 | > 2 | IC50 [19]: > 2 µM; IC50 [21]: > 2 µM
6 | CCN(CC)CCCCNc1ncc2cc(-c3cc(OC)cc(OC)c3)c(NC(=O)NC(C)(C)C)nc2n1 [PD-173074] | > 2 | > 2 | > 2 | > 2 | > 2 | > 2 | > 2 | > 2 | > 2 | > 2 | > 2 | > 2 | > 2 | > 2 | > 2 | > 2 | > 2 | > 2 | > 2 | > 2 | IC50 [19]: 0.339 µM; IC50 [21]: > 2 µM
7 | Cn1cnc2c(F)c(Nc3ccc(Br)cc3Cl)c(C(=O)NOCCO)cc21 [SELUMETINIB] | > 4 | 0.0229 | > 4 | – | > 4 | – | 0.107 | > 4 | – | > 4 | > 4 | > 4 | < 0.0156 | 0.0982 | > 4 | 1.06 | > 4 | > 4 | > 4 | > 4 | IC50 [19]: > 4 µM
8 | CS(=O)(=O)c1ccc(C(=O)Nc2ccc(Cl)c(-c3ccccn3)c2)c(Cl)c1 [VISMODEGIB] | > 10 | – | 0.0725 | > 10 | > 10 | > 10 | > 10 | > 10 | > 10 | > 10 | > 10 | > 10 | > 10 | > 10 | > 10 | > 10 | > 10 | > 10 | > 10 | > 10 | IC50 [24]: > 10 µM; IC50 [25]: > 10 µM; IC50 [21]: > 10 µM
